Measured values reported in patent publication US20240343704A1, “HALO-SUBSTITUTED AMINO PYRIDINE COMPOUNDS AS INHIBITORS OF THE HAEMATOPOIETIC PROGENITOR KINASE 1 (HPK1)” (priority 2021, published 2024).

Each compound was assayed against T1, Recombinant (1-346) HPK1 (h) (Homo sapiens, UniProt Q92918) (assay: HPK1 Human STE Kinase Enzymatic Radiometric Assay). Conditions: read-out: HPK1 IC50 nM Range*.
T1 construct: Recombinant (1-346) HPK1 (h) is incubated with 8 mM MOPS pH 7.0
T1 sequence (Q92918 1-346): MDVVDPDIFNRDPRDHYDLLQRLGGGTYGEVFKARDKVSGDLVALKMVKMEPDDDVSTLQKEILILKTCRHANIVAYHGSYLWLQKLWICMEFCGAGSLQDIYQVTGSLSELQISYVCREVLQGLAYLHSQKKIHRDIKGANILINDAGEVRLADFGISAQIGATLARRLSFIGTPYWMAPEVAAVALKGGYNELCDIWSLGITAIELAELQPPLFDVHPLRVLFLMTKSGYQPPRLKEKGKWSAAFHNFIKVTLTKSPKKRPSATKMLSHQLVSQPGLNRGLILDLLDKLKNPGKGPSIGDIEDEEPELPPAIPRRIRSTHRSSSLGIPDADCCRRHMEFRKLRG
Type: biochemical
Experimental: A stock solution of 10 mM of test compound is prepared in DMSO. The compound plate was prepared by 3-fold and 9-point serial dilutions. […] The reaction is initiated by The addition of the Mg/ATP mix. After incubation for 40 minutes at RT, the reaction is stopped by the addition of phosphoric acid to a concentration of 0.5%.

| IC50 [nM] | Compound |
| --- | --- |
| 0.1 to 10 | C[C@@H]1CN(c2ccc(-c3cc(-c4cc5c(cc4F)C(=O)NCC5)c(N)nc3F)cc2CN(C)C)CCO1 [I-576, (R)-6-(2-amino-5-(3-((dimethylamino)methyl)-4-(2-methylmorpholino)phenyl)-6-fluoropyridin-3-yl)-7-fluoro-3,4-dihydroisoquinolin-1(2H)-one] |
| 0.1 to 10 | Nc1nc(F)c(-c2ccc(N3CCOCC3)c(CN3CCC3)n2)cc1-c1ccc2c(c1)CCNC2=O [I-578, 6-(6′-amino-6-(azetidin-1-ylmethyl)-2-fluoro-5-morpholino-[2,3′-bipyridin]-5′-yl)-3,4-dihydroisoquinolin-1(2H)-one] |
| 11 to 100 | Cc1cc2cc(-c3cc(-c4ccc(C5CCOCC5)c(CN(C)C)c4)c(F)nc3N)cc(F)c2c(=O)[nH]1 [I-504, 6-(2-amino-5-(3-((dimethylamino)methyl)-4-(tetrahydro-2H-pyran-4-yl)phenyl)-6-fluoropyridin-3-yl)-8-fluoro-3-methylisoquinolin-1(2H)-one] |
| 11 to 100 | COc1nc2cc(-c3cc(-c4ccc(N5CCN(C(C)C)CC5)cc4)c(F)nc3N)ccc2c(=O)[nH]1 [I-419, 7-(2-amino-6-fluoro-5-(4-(4-isopropylpiperazin-1-yl)phenyl)pyridin-3-yl)-2-methoxyquinazolin-4(3H)-one] |
| 11 to 100 | COC1CCN(Cc2cc(-c3cc(-c4ccc5c(c4)CCNC5=O)c(N)nc3F)ccc2N2CCOCC2)C1 (centres unmarked) [I-542, 6-(2-amino-6-fluoro-5-(3-((3-methoxypyrrolidin-1-yl)methyl)-4-morpholinophenyl)pyridin-3-yl)-3,4-dihydroisoquinolin-1(2H)-one] |
| 0.1 to 10 | Nc1nc(F)c(-c2ccc(C3CCOCC3)c(CN3CCC3)n2)cc1-c1cc2c(cc1F)C(=O)NCC2 [I-602, 6-(6′-amino-6-(azetidin-1-ylmethyl)-2′-fluoro-5-(tetrahydro-2H-pyran-4-yl)-[2,3′-bipyridin]-5′-yl)-7-fluoro-3,4-dihydroisoquinolin-1(2H)-one] |
| 11 to 100 | CCN(C)Cc1cc(-c2cc(-c3ccc4c(=O)[nH]cc(C)c4c3)c(N)nc2F)ccc1OC [I-634, 6-(2-amino-5-(3-((ethyl(methyl)amino)methyl)-4-methoxyphenyl)-6-fluoropyridin-3-yl)-4-methylisoquinolin-1(2H)-one] |
| 0.1 to 10 | Nc1nc(F)c(-c2ccc(N3CCN(CCC(F)F)CC3)cc2)cc1-c1ccc2c(c1)CCNC2=O [I-476, 6-(2-amino-5-(4-(4-(3,3-difluoropropyl)piperazin-1-yl)phenyl)-6-fluoropyridin-3-yl)-3,4-dihydroisoquinolin-1(2H)-one] |
| 11 to 100 | COc1cc2c(cc1-c1cc(-c3ccc4c(c3)CCNC4=O)c(N)nc1F)CN(C)CC2 [I-438, 6-(2-amino-6-fluoro-5-(6-methoxy-2-methyl-1,2,3,4-tetrahydroisoquinolin-7-yl)pyridin-3-yl)-3,4-dihydroisoquinolin-1(2H)-one] |
| 11 to 100 | Cc1[nH]c(=O)c2ccc(-c3cc(-c4ccc(N5CCOCC5)c(CN(C)C)c4)c(F)nc3N)cc2c1F [I-515, 6-(2-amino-5-(3-((dimethylamino)methyl)-4-morpholinophenyl)-6-fluoropyridin-3-yl)-4-fluoro-3-methylisoquinolin-1(2H)-one] |
| 0.1 to 10 | Nc1nc(F)c(-c2ccc(N3CCN(CCC(F)F)CC3)cc2)cc1-c1cc2c(cc1F)C(=O)NCC2 [I-477, 6-(2-amino-5-(4-(4-(3,3-difluoropropyl)piperazin-1-yl)phenyl)-6-fluoropyridin-3-yl)-7-fluoro-3,4-dihydroisoquinolin-1(2H)-one] |
| 11 to 100 | Cc1nc2cc(-c3cc(-c4ccc(C5CCOCC5)c(CN(C)C)c4)c(F)nc3N)cc(F)c2c(=O)[nH]1 [I-490, 7-(2-amino-5-(3-((dimethylamino)methyl)-4-(tetrahydro-2H-pyran-4-yl)phenyl)-6-fluoropyridin-3-yl)-5-fluoro-2-methylquinazolin-4(3H)-one] |
| 11 to 100 | C[C@@H]1CN(c2ccc(-c3cc(-c4cc(F)c5c(c4)CCNC5=O)c(N)nc3F)cc2CN(C)C)C[C@H](C)O1 [I-596, 6-(2-amino-5-(3-((dimethylamino)methyl)-4-((2R,6S)-2,6-dimethylmorpholino)phenyl)-6-fluoropyridin-3-yl)-8-fluoro-3,4-dihydroisoquinolin-1(2H)-one] |
| 11 to 100 | CN(Cc1cc(-c2cc(-c3cc4c(cc3F)C(=O)NCC4)c(N)nc2F)ccc1N1CCOCC1)CC1CCCO1 (centres unmarked) [I-619, 6-(2-amino-6-fluoro-5-(3-((methyl((tetrahydrofuran-2-yl)methyl)amino)methyl)-4-morpholinophenyl)pyridin-3-yl)-7-fluoro-3,4-dihydroisoquinolin-1(2H)-one] |
| 11 to 100 | CN1CCC[C@H]1c1cc(-c2cc(-c3ccc4c(c3)CCNC4=O)c(N)nc2F)ccc1C1CCOCC1 [I-642, (S)-6-(2-amino-6-fluoro-5-(3-(1-methylpyrrolidin-2-yl)-4-(tetrahydro-2H-pyran-4-yl)phenyl)pyridin-3-yl)-3,4-dihydroisoquinolin-1(2H)-one] |
| 0.1 to 10 | CC(C)(C)OC(=O)N1CCN(c2ccc(-c3cc(-c4ccc5c(c4)CCNC5=O)c(N)nc3F)nc2)CC1 [I-590, tert-butyl4-(6′-amino-2′-fluoro-5′-(1-oxo-1,2,3,4-tetrahydroisoquinolin-6-yl)-[2,3′-bipyridin]-5-yl) piperazine-1-carboxylate] |
| 0.1 to 10 | CO[C@H]1CCN(Cc2cc(-c3cc(-c4cc5c(cc4F)C(=O)NCC5)c(N)nc3F)ccc2N2CCOCC2)C1 [I-566, (S)-6-(2-amino-6-fluoro-5-(3-((3-methoxypyrrolidin-1-yl)methyl)-4-morpholinophenyl)pyridin-3-yl)-7-fluoro-3,4-dihydroisoquinolin-1(2H)-one] |
| 0.1 to 10 | CC(=O)N1CCC(Oc2ccc(-c3cc(-c4cc5c(cc4F)C(=O)NCC5)c(N)nc3F)cc2C#N)CC1 [I-291, 2-((1-acetylpiperidin-4-yl)oxy)-5-(6-amino-2-fluoro-5-(7-fluoro-1-oxo-1,2,3,4-tetrahydroisoquinolin-6-yl)pyridin-3-yl)benzonitrile] |
| 101 to 1000 | Nc1nc(F)c(-c2ccc(C3=CCOCC3)cc2CO)cc1-c1cc2c(cc1F)C(=O)NCC2 [I-528, 6-(2-amino-5-(4-(3,6-dihydro-2H-pyran-4-yl)-2-(hydroxymethyl)phenyl)-6-fluoropyridin-3-yl)-7-fluoro-3,4-dihydroisoquinolin-1(2H)-one] |
| 11 to 100 | CN(C)Cc1cc(-c2cc(-c3ccc4c(c3)CCNC4=O)c(N)nc2F)ccc1F [I-617, 6-(2-amino-5-(3-((dimethylamino)methyl)-4-fluorophenyl)-6-fluoropyridin-3-yl)-3,4-dihydroisoquinolin-1(2H)-one] |
| 11 to 100 | CN(C)Cc1cc(-c2cc(-c3ccc4c(c3)CCNC4=O)c(N)nc2F)ccc1OCC1CCOCC1 [I-532, 6-(2-amino-5-(3-((dimethylamino)methyl)-4-((tetrahydro-2H-pyran-4-yl)methoxy)phenyl)-6-fluoropyridin-3-yl)-3,4-dihydroisoquinolin-1(2H)-one] |
| 11 to 100 | COc1ccc(-c2cc(-c3ccc4c(c3)CCNC4=O)c(N)nc2F)cc1CN1CCC(OC)CC1 [I-518, 6-(2-amino-6-fluoro-5-(4-methoxy-3-((4-methoxypiperidin-1-yl)methyl)phenyl)pyridin-3-yl)-3,4-dihydroisoquinolin-1(2H)-one] |
| 11 to 100 | CC(C)N1CCN(c2ccc(-c3cc(-c4ccc5c(=O)[nH]cc(Cl)c5c4)c(N)nc3F)cc2)CC1 [I-466, 6-(2-amino-6-fluoro-5-(4-(4-isopropylpiperazin-1-yl)phenyl)pyridin-3-yl)-4-chloroisoquinolin-1(2H)-one] |
| 101 to 1000 | CN1CCC[C@H]1c1cccc(-c2cc(-c3ccc4c(c3)CCNC4=O)c(N)nc2F)c1 [I-443, (S)-6-(2-amino-6-fluoro-5-(3-(1-methylpyrrolidin-2-yl)phenyl)pyridin-3-yl)-3,4-dihydroisoquinolin-1(2H)-one] |
| 11 to 100 | COc1ccc(-c2cc(-c3ccc4c(c3)CCNC4=O)c(N)nc2F)cc1CO [I-536, 6-(2-amino-6-fluoro-5-(3-(hydroxymethyl)-4-methoxyphenyl)pyridin-3-yl)-3,4-dihydroisoquinolin-1(2H)-one] |
| 0.1 to 10 | Cc1c[nH]c(=O)c2ccc(-c3cc(-c4ccc([C@]56C[C@H]5CN(C)C6)cc4)c(F)nc3N)cc12 [I-471, 6-(2-amino-6-fluoro-5-(4-((1S,5R)-3-methyl-3-azabicyclo[3.1.0]hexan-1-yl)phenyl)pyridin-3-yl)-4-methylisoquinolin-1(2H)-one] |
| 101 to 1000 | Cn1cnnc1CC1(c2cccc(-c3cc(-c4ccc5c(c4)CCNC5=O)c(N)nc3F)c2)COC1 [I-638, 6-(2-amino-6-fluoro-5-(3-(3-((4-methyl-4H-1,2,4-triazol-3-yl)methyl)oxetan-3-yl)phenyl)pyridin-3-yl)-3,4-dihydroisoquinolin-1(2H)-one] |
| 11 to 100 | CN(C)Cc1cc(-c2cc(-c3ccc4c(=O)[nH]cc(F)c4c3)c(N)nc2F)ccc1N1CCOCC1 [I-480, 6-(2-amino-5-(3-((dimethylamino)methyl)-4-morpholinophenyl)-6-fluoropyridin-3-yl)-4-fluoroisoquinolin-1(2H)-one] |
| 0.1 to 10 | CN(C)Cc1cc(-c2cc(-c3ccc4c(c3)CCNC4=O)c(N)nc2F)ccc1N1CCN(C2CCC2)CC1 [I-461, 6-(2-amino-5-(4-(4-cyclobutylpiperazin-1-yl)-3-((dimethylamino)methyl)phenyl)-6-fluoropyridin-3-yl)-3,4-dihydroisoquinolin-1(2H)-one] |
